Laboratory results as given in patent publication US20250313588A1, “NOVEL PYRROLOPYRIMIDINONE CARBOXAMIDE COMPOUND FOR INHIBITING CDK, STEREOISOMER THEREOF OR PHARMACEUTICALLY ACCEPTABLE SALT THEREOF, AND PHARMACEUTICAL COMPOSITION FOR TREATING CANCER, COMPRISING SAME AS ACTIVE INGREDIENT” (Seoul National University R&DB Foundation, priority 2022, published 2025).

Assays:
[1] = Plasma metabolic stability assay (mouse plasma)
Description: (§4) DMSO was used as a diluent to prepare stock solutions of a test substance and a positive control at a concentration of 10 mM. The positive control stock solution was then diluted with 70% acetonitrile to a working concentration of 0.2 mM, and then the test substance stock solution was diluted with 70% acetonitrile to a working concentration of 1 mM. A quench reagent consisted of acetonitrile containing tolbutamide and propranolol (provided as an internal standard).
(§5) Positive control and test substance working solutions were spiked into plasma at a concentration of 1 μM and 5 μM, respectively. A 0-min sample was prepared by adding an 80 μL aliquot of each incubation mixture to 320 μL of the quench reagent to precipitate proteins. The mixture was incubated in a water bath at 37° C. with gentle shaking. Aliquots of 80 μL of each mixture were removed and placed in a clean 96-well plate containing 320 μL of the quench reagent to precipitate proteins at 15, 30, 45, and 60 min and centrifuged (5000×g, 15 minutes). 100 μL of the supernatant was placed in a 96-well assay plate to which 200 μL of ultrapure water had been added in advance, and analyzed by LC-MS/MS.

[2] = Plasma metabolic stability assay (human plasma); conditions: for half-life at 5 μM: human, plasma; for plasma stability (in words): summary of Table 1, 'in each group'
Description: as §4, §5

[3] = test system: Huh-7 cells, hepatocellular carcinoma cell line; assay: Anticancer efficacy in mouse model transplanted with Huh-7 cells; format: in vivo, nude mice; conditions: Huh-7 xenograft; for changes in cancer growth: 20 mg/kg oral (SNS-032 intraperitoneal), five times a week for two weeks, compared to Y102 and SNS-032 groups; for weight of the extracted cancer: day 14
Description: (§1) To evaluate in vivo efficacy, 1×10^7 Huh-7 cells were transplanted into the right calves of nude mice to form cancer tissue, and then the anticancer efficacy of the new compositions Y106 and Y108 was compared with that of an existing CDK inhibitor Y102 or SNS-032.
The dose was the same for all mice (20 mg/kg), the vehicle, Y102, Y106, and Y108 were administered orally, and only SNS-032 was administered intraperitoneally. These were administered five times a week for two weeks, the size was measured twice a week using calipers to measure the changes in cancer growth and the mouse body weight for 14 days, and on day 14, the cancer tissue was removed to confirm the size and weight thereof.

[4] = test system: Hep3B cells, hepatocellular carcinoma cell line; assay: Anticancer efficacy in mouse model transplanted with Hep3B cells; format: in vivo, nude mice; conditions: Hep3B xenograft; for changes in cancer growth: 20 mg/kg oral (SNS-032 intraperitoneal), compared to Y102 and SNS-032 groups; for changes in cancer growth / changes in mouse body weight: 27 days; for changes in mouse body weight / weight of the extracted cancer: 20 mg/kg; for weight of the extracted cancer: day 27
Excerpt: as §1, with “efficacy using Hep3B cells, another hepatocellular carcinoma cell line, 3×10^6 Hep3B” for “efficacy, 1×10^7 Huh-7”
The dosage, administration schedule, and administration route were applied in the same manner as in the method performed in the mouse model transplanted with Huh-7 cells in Example 3. After administration of the new compositions and the existing CDK inhibitors, changes in cancer growth and mouse body weight were measured for 27 days, and then on day 27, the cancer tissues were removed to confirm the size and weight thereof.

[5] = test system: A549 cells, non-small cell lung cancer cell line; assay: Anticancer efficacy in mouse model transplanted with A549 cells; format: in vivo, nude mice; conditions: A549 xenograft; for changes in cancer growth: 20 mg/kg oral (SNS-032 intraperitoneal), administered for five days, compared to Y102 and SNS-032 groups; for changes in cancer growth / changes in mouse body weight: 25 days; for changes in mouse body weight / weight of the extracted cancer: 20 mg/kg; for weight of the extracted cancer: day 25
Description: as §1, with “efficacy in a mouse model transplanted with A549 cells, a non-small cell lung cancer cell line, 1×10^6 A549” for “efficacy, 1×10^7 Huh-7”
The dose was the same for all mice (20 mg/kg), the vehicle, Y102, Y106, and Y108 were administered orally, and only SNS-032 was administered intraperitoneally. These were administered for five days, the size was measured twice a week using calipers to measure the changes in cancer growth and the mouse body weight for 25 days, and on day 25, the cancer tissue was removed to confirm the size and weight thereof.

[6] = test system: Huh-7 cells; assay: Cell colony forming assay, Huh-7; format: cell-based; conditions: Huh-7, 1 μM and 3 μM for 12 hours, 7 to 14 days; compared to Y102 or SNS-032
Description: (§2) To examine the anticancer efficacy of Y106 and Y108 in vitro, a cell colony formation assay was performed in hepatocellular carcinoma cell lines Huh-7 and Hep3B cells.
(§3) 500 cells were seeded into 6-well plates, and then treated with Y102, Y106,Y108, or SNS-032 at 1 μM and 3 μM for 12 hours, the medium was then replaced with fresh medium, and after 7 to 14 days, the cells were stained with 20% methanol+0.5% Crystal Violet for colony staining, and the number of cells was counted for quantitative analysis.

[7] = test system: Hep3B cells; assay: Cell colony forming assay, Hep3B; format: cell-based; conditions: 1 μM and 3 μM for 12 hours, 7 to 14 days, compared to Y102 or SNS-032
Description: as §2, §3

[8] = plasma
Description: as §4, §5

[9] = plasma; remark: listed apart in the source
Description: as §4, §5

CC(C)C(=O)OC[C@@H]1O[C@H](n2cnc(N)c3c(C(N)=O)c(Br)nc2-3)[C@@H](O)[C@@H]1OC(=O)C(C)C [Compound Y105, (2S,3S,4S,5S)-5-(4-amino-6-bromo-5-carbamoyl-1H-pyrrolo[2,3-d]pyrimidin-1-yl)-4-hydroxy-2-((isobutyryloxy)methyl)tetrahydrofuran-3-yl isobutyrate]
half-life at 5 μM [1]: 2.67 ± 0.2 min
half-life at 5 μM [2]: 20.5 ± 0.34 min

CCC(C)(C)C(=O)OC[C@@H]1O[C@H](n2cnc(N)c3c(C(N)=O)c(Br)nc2-3)[C@@H](O)[C@@H]1OC(=O)C(C)(C)CC [Compound Y106, (2S,3S,4S,5S)-5-(4-amino-6-bromo-5-carbamoyl-1H-pyrrolo[2,3-d]pyrimidin-1-yl)-2-(((2,2-dimethylbutanoyl)oxy)methyl)-4-hydroxytetrahydrofuran-3-yl 2,2-dimethylbutanoate]
changes in cancer growth ([3]; 14 days): significantly inhibited cancer growth
weight of the extracted cancer ([3]; 20 mg/kg): least amount of cancer tissue
changes in cancer growth [4]: inhibited cancer growth more effectively
changes in mouse body weight [4]: no significant difference
weight of the extracted cancer [4]: least amount of cancer tissue
changes in cancer growth [5]: inhibited cancer growth more clearly
changes in mouse body weight [5]: no significant difference
weight of the extracted cancer [5]: least amount of cancer tissue
colony formation [6]: remarkably reduced
colony formation [7]: remarkably reduced
half-life at 5 μM [1]: 7.1 ± 0.07 min
half-life at 5 μM [2]: > 720 min
plasma stability (in words) [2]: highest stability

CCC(C)(C)C(=O)OC[C@@H]1O[C@H](n2cnc(N)c3c(C(N)=O)c(Br)nc2-3)[C@@H](O)[C@@H]1O [Compound Y107, ((2S,3S,4S,5S)-5-(4-amino-6-bromo-5-carbamoyl-1H-pyrrolo[2,3-d]pyrimidin-1-yl)-3,4-dihydroxytetrahydrofuran-2-yl)methyl 2,2-dimethylbutanoate]
half-life at 5 μM [1]: 6.91 ± 0.11 min
half-life at 5 μM [2]: 26.6 ± 4.33 min

CC(C)(C)C(=O)OC[C@@H]1O[C@H](n2cnc(N)c3c(C(N)=O)c(Br)nc2-3)[C@@H](O)[C@@H]1OC(=O)C(C)(C)C [Compound Y108, (2S,3S,4S,5S)-5-(4-amino-6-bromo-5-carbamoyl-1H-pyrrolo[2,3-d]pyrimidin-1-yl)-4-hydroxy-2-((pivaloyloxy)methyl)tetrahydrofuran-3-yl pivalate]
changes in cancer growth ([3]; 14 days): significantly inhibited cancer growth
weight of the extracted cancer ([3]; 20 mg/kg): least amount of cancer tissue
changes in cancer growth [4]: inhibited cancer growth more effectively
changes in mouse body weight [4]: no significant difference
weight of the extracted cancer [4]: least amount of cancer tissue
changes in cancer growth [5]: inhibited cancer growth more clearly
changes in mouse body weight [5]: no significant difference
weight of the extracted cancer [5]: least amount of cancer tissue
colony formation [6]: remarkably reduced
colony formation [7]: remarkably reduced
half-life at 5 μM [1]: 7.25 ± 0.01 min
half-life at 5 μM [2]: 700 ± 42.5 min
plasma stability (in words) [2]: highest stability

NC(=O)c1c(Br)nc2n([C@H]3O[C@@H](COC(=O)C45CC6CC(CC(C6)C4)C5)C(O)[C@H]3O)cnc(N)c1-2 (stereo partly drawn) [Compound Y109, ((2S,3S,4S,5S)-5-(4-amino-6-bromo-5-carbamoyl-1H-pyrrolo[2,3-d]pyrimidin-1-yl)-3,4-dihydroxytetrahydrofuran-2-yl)methyl(3S,5S,7S)-adamantane-1-carboxylate]
half-life at 5 μM [1]: 7.77 ± 0.13 min
half-life at 5 μM [2]: 280 ± 3.06 min

CC1CC(OC(=O)C(O)c2ccccc2)CC(C)(C)N1C (stereo not drawn) [Eucatropin, reference compound]
half-life at 5 μM [1]: 32.6 ± 4.81 min
half-life at 5 μM [2]: 16.7 ± 0.38 min

CC(C)(C)c1cnc(CSc2cnc(NC(=O)C3CCNCC3)s2)o1 [SNS-032, reference compound]
mouse body weight ([3]; 20 mg/kg, 14 days): slightly reduced
changes in mouse body weight [4]: no significant difference
changes in mouse body weight [5]: no significant difference

Ibulocydine
T1/2(min) Mouse [8]: 2.85 ± 0.02 min
T1/2(min) Human [9]: 4.57 ± 0.09 min
